Biological target: T1, Tumor necrosis factor receptor-associated factor 4 (TRAF4) (Homo sapiens, UniProt Q9BUZ4)
T1 construct: GFP-TRAF4 (MST)
T1 sequence (Q9BUZ4 1-470): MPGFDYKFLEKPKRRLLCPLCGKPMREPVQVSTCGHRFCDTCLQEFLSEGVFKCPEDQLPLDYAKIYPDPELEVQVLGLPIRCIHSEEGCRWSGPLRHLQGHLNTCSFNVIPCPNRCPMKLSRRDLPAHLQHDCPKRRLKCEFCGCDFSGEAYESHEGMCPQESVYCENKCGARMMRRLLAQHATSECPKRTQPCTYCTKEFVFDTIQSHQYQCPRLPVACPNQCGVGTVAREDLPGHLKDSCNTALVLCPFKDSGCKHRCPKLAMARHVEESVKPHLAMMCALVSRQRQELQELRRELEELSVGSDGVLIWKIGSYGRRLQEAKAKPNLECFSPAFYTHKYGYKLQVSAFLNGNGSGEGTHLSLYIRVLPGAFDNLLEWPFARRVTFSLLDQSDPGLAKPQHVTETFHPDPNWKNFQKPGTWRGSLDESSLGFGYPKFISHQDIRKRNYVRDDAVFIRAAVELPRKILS
Assay: ITC (Kd […]); also MST (Kd […]), competition of biotin-OA pull-down, CETSA
Format: binding

COc1c(O)cc2oc(-c3ccccc3)cc(=O)c2c1O [OA, Oroxylin A]
Kd: 1100 nM

Source: article PMC11831473 (Advanced Science, 2024)
